Measurements from patent US20250296938A1, “Compounds that Interact with the Ras Superfamily for the Treatment of Cancers, Inflammatory Diseases, Rasopathies, and Fibrotic Disease” (SHY Therapeutics, LLC, priority 2018, published 2025).
Where two headings read alike, the source gives them in different places.

Tests used:
Experiment in all cases: Ras GTP binding domain inhibition assay (Cy3-GTP/Cy5-GTP competition)
KRas G12D mutant = biological target: T1, KRas G12D mutant (Homo sapiens, UniProt P01116, G12D); conditions: at 20 μM
T1 construct: fused on or other part: His tag, used for capture on nickel-coated plates
Procedure, shortened: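 His-tagged Ras proteins were captured on nickel-coated wells in Buffer-I (25 mM Tris-HCl pH 7.4, 27 mM KCl, 137 mM NaCl, 1 mM MgCl2, 1 mM DTT) or Buffer-II (50 mM Tris-HCl pH 7.0). Compounds (20 μM or serial dilution, 1% DMSO) were incubated 3 h at RT, ±Sos(556-1049) in the final hour. Bound Cy3-/Cy5-GTP (100 nM, 45 min) was read after washing.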

Rac-1 = Rac-1 (Homo sapiens, UniProt P63000)
Procedure, shortened: (§1)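 Compounds tested at 20 μM or in serial dilution for IC50 against nickel-captured His-tagged GTPase, 3 hours at room temperature, with or without His-Sos GEF added for last hour. Fluorescent GTP then added at 100 nM for 45 minutes; wells washed, bound label measured by fluorescence.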

Rho-A = Rho-A (Homo sapiens, UniProt P61586)
Procedure, shortened: as §1

[1] = with SOS, read-out: KRas G12D mutant + SOS: % inh.
[2] = without SOS, read-out: KRas G12D mutant: % inh.
[3] = with SOS, read-out: Rac-1 + SOS: % inh.
[4] = without SOS, read-out: Rac-1: % inh.
[5] = with SOS, read-out: Rho-A + SOS: % inh.
[6] = without SOS, read-out: Rho-A: % inh.

Row | Compound | inhibition at 20 µM (KRas G12D mutant; [1]) [%] | inhibition at 20 µM (KRas G12D mutant; [2]) [%] | inhibition at 20 µM (Rac-1; [3]) [%] | inhibition at 20 µM (Rac-1; [4]) [%] | inhibition at 20 µM (Rho-A; [5]) [%] | inhibition at 20 µM (Rho-A; [6]) [%]
1 | COC1CCN(c2nc(-c3nccn3C)nc3sc(-c4ccncc4C)c(-c4ccccc4)c23)C1 (stereo not drawn) [drawing 955] | 26 to 50 | 26 to 50 | 0 | 1 to 25 | 0 | 51 to 75
2 | O=C(NCc1ccccc1)c1nc(-c2ccccn2)nc(O)c1O [drawing 956] | 51 to 75 | 51 to 75 | 51 to 75 | 51 to 75 | 26 to 50 | 0
3 | COC1CCN(c2nc(-c3nccn3C)nc3sc(Br)c(-c4ccccc4)c23)C1 (stereo not drawn) [drawing 957] | 51 to 75 | 26 to 50 | 1 to 25 | 1 to 25 | 26 to 50 | 1 to 25
4 | COC1CCN(c2nc(-c3nccn3C)nc3sc(-c4ccnc(N(C)C)c4)c(-c4ccccc4)c23)C1 (stereo not drawn) [drawing 958] | 51 to 75 | 51 to 75 | 51 to 75 | 26 to 50 | 26 to 50 | 26 to 50
5 | COC(=O)c1nc(-c2nccn2C)nc(O)c1O [drawing 959] | 26 to 50 | 51 to 75 | 51 to 75 | 76 to 100 | 51 to 75 | 1 to 25
6 | Cn1ccnc1-c1nc(O)c(O)c(C(=O)NC2CCC2)n1 [drawing 960] | 26 to 50 | 51 to 75 | 51 to 75 | 76 to 100 | 51 to 75 | 26 to 50
7 | Cn1ccnc1-c1nc(O)c(O)c(C(=O)N2CCCCC2)n1 [drawing 961] | 1 to 25 | 26 to 50 | 1 to 25 | 51 to 75 | 51 to 75 | 26 to 50
8 | Cn1ccnc1-c1nc(O)c(O)c(C(=O)NC2CCCC2)n1 [drawing 962] | 26 to 50 | 51 to 75 | 51 to 75 | 51 to 75 | 76 to 100 | 26 to 50
9 | Cn1ccnc1-c1nc(O)c(O)c(C(=O)N2CCCC2)n1 [drawing 963] | 1 to 25 | 26 to 50 | 26 to 50 | 51 to 75 | 51 to 75 | 1 to 25
10 | CCN(CC)C(=O)c1nc(-c2nccn2C)nc(O)c1O [drawing 964] | 1 to 25 | 51 to 75 | 1 to 25 | 26 to 50 | 51 to 75 | 26 to 50
11 | CC(C)NC(=O)c1nc(-c2nccn2C)nc(O)c1O [drawing 965] | 26 to 50 | 51 to 75 | 51 to 75 | 51 to 75 | 76 to 100 | 51 to 75
12 | O=C(c1nc(-c2ccccn2)nc(O)c1O)N1CCCC1 [drawing 966] | 1 to 25 | 51 to 75 | 26 to 50 | 26 to 50 | 51 to 75 | 76 to 100
13 | O=C(c1nc(-c2ccccn2)nc(O)c1O)N1CCc2ccccc2C1 [drawing 967] | 26 to 50 | 51 to 75 | 51 to 75 | 76 to 100 | 76 to 100 | 76 to 100
14 | Oc1nc(-c2ncc3n2CCCC3)nc2c(-c3ccccn3)csc12 [drawing 968] | 51 to 75 | 51 to 75 | 76 to 100 | 51 to 75 | 76 to 100 | 26 to 50
15 | Oc1nc(-c2ncc3ccccn23)nc2c(-c3ccccn3)csc12 [drawing 969] | 51 to 75 | 76 to 100 | 76 to 100 | 76 to 100 | 76 to 100 | 76 to 100
16 | COC1CCN(c2nc(-c3nccn3C)nc3sc(-c4cnn(C)c4)c(-c4ccccc4)c23)C1 (stereo not drawn) [drawing 970] | 76 to 100 | 26 to 50 | 0 | 0 | 76 to 100 | 26 to 50
17 | COc1ccc(-c2sc3nc(-c4nccn4C)nc(N4CCC(OC)C4)c3c2-c2ccccc2)cn1 (stereo not drawn) [drawing 971] | 51 to 75 | 26 to 50 | 0 | 0 | 26 to 50 | 51 to 75
